Data reported in patent publication US20230416791A1, “METHOD TO PRODUCE BRANCHED-CHAIN POLYHYDROXYALKANOATES AND BRANCHED-CHAIN 3-HYDROXYACIDS FROM GLUCOSE” (Alliance for Sustainable Energy, LLC, priority 2022, published 2023).

Tests used:
[1] = system: MadB; assay: Transformation of non-EcAcpP substrate by MadB (HPLC / LC-MS detection); format: biochemical, Pseudomonas putida KT2440; details: 1 mM substrate, 5 μM MadB, HEPES pH 7.5, room temperature
Description: Transformation of non-EcAcpP substrate by MadB. […] The reaction contained 1 mM of the alternate substrate and 5 μM of MadB in HEPES (I=0.1 M) pH 7.5 supplemented with 10 mM MgCl2 and 1 mM TCEP. The reaction was incubated at room temperature with an intermittent agitation for −1 hour prior to being passed through a 0.2 μm filter and frozen until further analysis.
Detection of various CoA analytes in the samples were performed on an Agilent 1200 HPLC system (Agilent Technologies) equipped with an Agilent 6120 mass spectrometer detector (MS). Each sample and standard were injected at a volume of 2 μL on a Phenomenex Luna C18(2)-HST column 100A′, […], 2.0×100 mm column (Phenomenex). The column temperature was maintained at 45° C. and the buffers used to separate the analytes of interest was 0.1% formic acid in water (A)/0.1% formic acid in acetonitrile (B). A gradient program was used to separate the analytes of interest: (A)=100% and (B)=0% at time t=0; (A)=100% and (B)=0% at t=1 min; (A)=50% and (B)=50% at t=7.65 min; (A)=30% and (B)=70% at t=9.33 min; (A)=30% and (B)=70% at t=10.67 min; (A)=100% and (B)=0% at t=10.68 min; (A)=100% and (B)=0% at t=13 min. The flow rate was held constant at 0.50 mL/min resulting in a run time of 13 minutes. The MS system was setup in positive electrospray ionization mode with a gas temperature of 350° C., drying gas at 12 L/min, nebulizer pressure set to 35 psig, and a Vcap voltage of 3000v. A total of four different masses in SIM mode from the MS detector were used to determine the presence and or absence of each analyte of interest. […] One standard from each analyte was used to determine the elution order and retention times of the compounds.
Detection of malonic and acetic acid was performed on an Agilent 1290 HPLC system (Agilent Technologies) equipped with an Agilent G7117A diode array detector (DAD). NREL's laboratory analytical procedure “Determination of Structural Carbohydrates and Lignin in Biomass” (Sluiter et al., 2012) HPLC method was used to detect the analytes of interest as outlined below. […]

[2] = system: ΔmadB ΔfabH1 P. putida; assay: Growth curves with straight-chain fatty acid supplementation (microplate reader); format: cell-based, Pseudomonas putida KT2440; details: fatty acid sodium salt at 100 μg/mL, modified M9 with glucose, 30° C.
Description: (§1) Microplate reader experiments. Microplate reader experiments were performed by inoculating seed cultures from glycerol stocks into 10 mL of LB Broth (Miller; Sigma-Aldrich) with appropriate antibiotics in a 125 mL flask and incubating overnight at 30° C. (P. putida) or 37° C. (E. coli) and 225 rpm. Overnight cultures were then used to inoculate a second seed culture into 10 mL of LB Broth (Miller; Sigma-Aldrich) with appropriate antibiotics in a 125 mL flask starting at an optical density of 0.2 measured at 600 nm (0D600) using a GENESYS™ 140 Visible Light Spectrophotometer (Thermo Scientific). The second seed cultures were incubated at 30° C. (P. putida) or 37° C. (E. coli) at 225 rpm for 2-4 hrs until an OD600 of approximately 2 was reached. The second seed cultures were centrifuged at 8,000 rpm for 3 min, the pellets were washed with 1× M9, minimal salts (Sigma-Aldrich) three times, and resuspended to an OD600=3.0. Cells (10 μL) were transferred to five replicate wells in a 100-well Honeycomb 2 plate (Growth Curves USA) containing 290 μL of growth medium, corresponding to initial OD600=0.1. E. coli strains were grown in LB Broth (Miller; Sigma-Aldrich) at 37° C. and supplemented with 50 μg/mL kanamycin and 0.1 mM isopropylthio-β-galactoside (IPTG; GoldBio) when appropriate. P. putida strains were grown in modified M9 minimal media containing 6.78 g/L Na2HPO4, 3 g/L KH2PO4, 1 g/L NH4C1, 0.5 g/L NaCl, 2 mM MgSO4, 100 μM CaCl2, and 2 g/L glucose at 30° C. For fatty acid supplementation experiments, sodium salts of a given fatty acid (Sigma-Aldrich) were added to a final concentration of 100 μg/mL. OD600 measurements were acquired every 15 min with a Bioscreen C Pro (Growth Curves USA) and plate was shaken continuously. Maximum specific growth rates were calculated using a spline model (https://github.com/scott-saunders/growth_curve_fitting).

[3] = system: P. putida KT2440 ΔmadB ΔfabH1; assay: Growth of P. putida ΔmadB ΔfabH1 supplemented with straight-chain fatty acids; format: cell-based, Pseudomonas putida KT2440; details: 100 μg/mL, modified M9 minimal medium, 30° C.
Description: as §1

[4] = biological target: T1, Pseudomonas putida KT2440 MadB (PP_0262) variant His46Ala (H46A) (Pseudomonas putida, UniProt Q88R72, H46A); assay: ITC steady-state kinetics of malonyl-CoA decarboxylation
T1 sequence (Q88R72 1-151 H46A): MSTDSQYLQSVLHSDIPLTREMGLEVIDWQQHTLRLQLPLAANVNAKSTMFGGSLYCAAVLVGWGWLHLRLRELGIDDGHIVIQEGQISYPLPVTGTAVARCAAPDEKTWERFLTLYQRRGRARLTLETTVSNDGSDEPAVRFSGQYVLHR
Description: (§2) Kinetic determination using ITC.
(§3) Both variants were purified similarly to the wild-type MadB.

[5] = biological target: T2, Pseudomonas putida KT2440 MadB (PP_0262) variant Asn45Ala (N45A) (Pseudomonas putida, UniProt Q88R72, N45A); assay: as above
T2 sequence (Q88R72 1-151 N45A): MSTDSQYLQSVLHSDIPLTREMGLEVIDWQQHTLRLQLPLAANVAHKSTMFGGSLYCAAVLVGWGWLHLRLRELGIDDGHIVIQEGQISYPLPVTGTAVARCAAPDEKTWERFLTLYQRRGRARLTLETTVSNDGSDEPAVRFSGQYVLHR
Description: as §2, §3

[6] = biological target: T3, Pseudomonas putida KT2440 MadB (PP_0262, malonyl-ACP decarboxylase), wild type (Pseudomonas putida, UniProt Q88R72); details: malonyl-CoA decarboxylation, ITC, 30° C., pH 7.5
T3 sequence (Q88R72 1-151): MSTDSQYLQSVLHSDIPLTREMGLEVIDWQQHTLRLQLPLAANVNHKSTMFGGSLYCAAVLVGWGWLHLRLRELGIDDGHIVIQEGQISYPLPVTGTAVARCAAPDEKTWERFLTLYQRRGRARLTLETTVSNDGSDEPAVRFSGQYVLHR

[7] = substrate: CC(C)(COP(=O)(O)OP(=O)(O)OC[C@H]1O[C@@H](n2cnc3c(N)ncnc32)[C@H](O)[C@@H]1OP(=O)(O)O)[C@@H](O)C(=O)NCCC(=O)NCCSC(=O)CC(=O)O; assay: purified protein, by the assay type; details: other: malonyl-CoA decarboxylation, ITC, 30° C., pH 7.5
[8] = malonyl-CoA, His46Ala vs wild-type
[9] = malonyl-CoA, Asn45Ala vs wild-type

CC(C(=O)O)C(=O)SCCNC(=O)CCNC(=O)[C@H](O)C(C)(C)COP(=O)(O)OP(=O)(O)OC[C@H]1O[C@@H](n2cnc3c(N)ncnc32)[C@H](O)[C@@H]1OP(=O)(O)O (stereo partly shown) [methylmalonyl-CoA]
decarboxylation by MadB [1]: capable of decarboxylating

CCCCCC(=O)O [C6]
effect on growth of ΔmadB ΔfabH1 [2]: appeared to improve growth, albeit less significantly
effect of fatty acid supplementation on growth [3]: improve growth, albeit less significantly

CCCCCCCC(=O)O [C8]
effect on growth of ΔmadB ΔfabH1 [2]: dramatic improvement of growth
effect of fatty acid supplementation on growth [3]: dramatic improvement of growth

O=C(O)CC(=O)O [malonate]
decarboxylation by MadB [1]: not

CCCC(=O)O [C4]
effect on growth of ΔmadB ΔfabH1 [2]: inhibited
effect of fatty acid supplementation on growth [3]: inhibited

CC(C)(COP(=O)(O)OP(=O)(O)OC[C@H]1O[C@@H](n2cnc3c(N)ncnc32)[C@H](O)[C@@H]1OP(=O)(O)O)[C@@H](O)C(=O)NCCC(=O)NCCSC(=O)CC(=O)O [malonyl-CoA]
decarboxylation by MadB [1]: capable of decarboxylating
Kcat ([4]; malonyl-CoA decarboxylation, His46Ala, ITC, 30° C., pH 7.5): 0.45 ± 0.01 s⁻¹
Michaelis constant relative to wild-type [4, 8]: about half
lower catalytic efficiency compared to the wild-type enzyme [4, 8]: 1.5 fold
Kcat ([5]; malonyl-CoA decarboxylation, Asn45Ala, ITC, 30° C., pH 7.5): 0.06 ± 0.01 s⁻¹
Michaelis constant relative to wild-type [5, 9]: about half
lower catalytic efficiency compared to the wild-type enzyme [5, 9]: 13 fold
Kcat [6]: 1.4 ± 0.1 s⁻¹

CCCCCCCCCC(=O)O [C10]
effect on growth of ΔmadB ΔfabH1 [2]: dramatic improvement of growth
effect of fatty acid supplementation on growth [3]: dramatic improvement of growth

CC(=O)O [C2]
effect on growth of ΔmadB ΔfabH1 [2]: had no effect on growth
effect of fatty acid supplementation on growth [3]: no effect on growth

B1: Pseudomonas putida KT2440 MadB (PP_0262, malonyl-ACP decarboxylase), wild type (Pseudomonas putida KT2440) (protein)
chain: MSTDSQYLQSVLHSDIPLTREMGLEVIDWQQHTLRLQLPLAANVNHKSTMFGGSLYCAAVLVGWGWLHLRLRELGIDDGHIVIQEGQISYPLPVTGTAVARCAAPDEKTWERFLTLYQRRGRARLTLETTVSNDGSDEPAVRFSGQYVLHR
Km ([7]; wild-type MadB): 12 ± 1 mM
kcat ([7]; wild-type MadB): 1.4 s⁻¹
kcat/Km ([7]; wild-type MadB): 120 M⁻¹ s⁻¹

B2: Pseudomonas putida KT2440 MadB (PP_0262) variant His46Ala (H46A) (Pseudomonas putida KT2440; H46A) (protein)
chain: MSTDSQYLQSVLHSDIPLTREMGLEVIDWQQHTLRLQLPLAANVNAKSTMFGGSLYCAAVLVGWGWLHLRLRELGIDDGHIVIQEGQISYPLPVTGTAVARCAAPDEKTWERFLTLYQRRGRARLTLETTVSNDGSDEPAVRFSGQYVLHR
Km ([7]; His46Ala): 5.7 ± 0.2 mM

B3: Pseudomonas putida KT2440 MadB (PP_0262) variant Asn45Ala (N45A) (Pseudomonas putida KT2440; N45A) (protein)
chain: MSTDSQYLQSVLHSDIPLTREMGLEVIDWQQHTLRLQLPLAANVAHKSTMFGGSLYCAAVLVGWGWLHLRLRELGIDDGHIVIQEGQISYPLPVTGTAVARCAAPDEKTWERFLTLYQRRGRARLTLETTVSNDGSDEPAVRFSGQYVLHR
Km ([7]; Asn45Ala): 6.9 ± 0.5 mM
